# Experimental data: patent publication US20220257752A1, “NEW USE OF CYCLIC DINUCLEOTIDES” (priority 2019, published 2022)
# B1: OVA: ovalbumin antigen (EndoGrade, Hyglos) given without adjuvant (protein, UniProt P01012 2-386, looked up)
# Ovalbumin: GSIGAASMEFCFDVFKELKVHHANENIFYCPIAIMSALAMVYLGAKDSTRTQINKVVRFDKLPGFGDSIEAQCGTSVNVHSSLRDILNQITKPNDVYSFSLASRLYAEERYPILPEYLQCVKELYRGGLEPINFQTAADQARELINSWVESQTNGIIRNVLQPSSVDSQTAMVLVNAIVFKGLWEKAFKDEDTQAMPFRVTEQESKPVQMMYQIGLFRVASMASEKMKILELPFASGTMSMLVLLPDEVSGLEQLESIINFEKLTEWTSSNVMEERKIKVYLPRMKMEEKYNLTSVLMAMGITDVFSSSANLSGISSAESLKISQAVHAAHAEINEAGREVVGSAEAGVDAASVSEEFRADHPFLFCIKHIATNAVLFFGRCVSP
# Assays:
# [1] = tested on: H1N1 influenza A/WSN/33 (WSN)-OVA(I) strain; type: in vivo, mice; details: mouse, in vivo
# [2] = tested on: H1N1 PR8 influenza A/WSN/33 (WSN)-OVA(I) strain; type: in vivo, mice
# [3] = tested on: human cord blood; assay: In vitro assay using human cord blood: cytokines in supernatant (multiplex array, IL-1β ELISA); type: cell-based
# Text: (§1) Adult peripheral blood for controls was collected from healthy volunteers. Cord blood was obtained by needle puncture of the umbilical cord vein right after delivery of healthy newborn donors at the Women's Clinic (Braunschweig Central Hospital). Signed informed consent from parents was obtained, ensuring that no ulterior modification of the genetic material contained or therapeutic use was involved in our study. Citrate anti-coagulated cord blood bags (Macopharma, France) were stored at room temperature before the in vitro assays.
# (§2) Adult or cord blood was mixed 1:1 with 37° C. warm RPMI 1640 medium (Gibco) and incubated with adjuvants and controls according to previously described method (Dowling, D. J., et. al., 2013, PLoS One 8 (3):e58164.). Briefly, 20 μl of the adjuvants 10× were added to 180 μl of diluted blood in quadruplicates (in a 96 U shape well plate), and incubated at 37° C., 5% CO2 for 6 h. Supernatant fluids were assayed by flow cytometry in multiplex arrays (Biolegend) or in an ELISA reader for IL-1β (eBioscience).
# (§3) One of the well-established methods to assess adjuvant immunogenicity in human neonates is the use of cord blood as a surrogate (Dowling, D. J., et. al., 2013, PLoS One 8 (3):e58164. doi:). Therefore, to assess the secretory cytokine profile elicited by CDA in neonates, we incubated cord and adult blood in the presence of adjuvants and controls for 6 h. A bead-based multiplexed immunoassay array was employed in order to detect cytokines in the supernatant. […] Remarkably, CDA increased the secretion of Th1 cytokines, which are important to counteract the Th2 bias present at birth (Debock, I., et. al., 2013, J Immunol 191 (3):1231-9. doi: 10.4049/jimmunol.1203288).
# [4] = tested on: human adult peripheral blood; assay: In vitro assay using human adult blood: cytokines in supernatant (multiplex array, IL-1β ELISA); type: cell-based
# Text: as §1, §2, §3
# [5] = tested on: OVA-specific IgG; type: in vivo, mice; details: versus OVA alone, PBS and R848
Molecule,body weight over 14 days after challenge [1],"protection conferred ([2]; mouse, in vivo)","protective CTL response against influenza virus expressing a CD8 restricted epitope ([2]; mouse, in vivo)","differences in protection during the 48 h of maximal weight loss ([2]; versus the other adjuvants and controls, unpaired t test p≤0.05)","Th17 cytokines ([3]; after treatment, blood type not given)",IL-9 ([3]; cord blood samples),"IL-6, IL-21 and IL-10 (Tfh profile cytokines) concentrations ([3]; cord blood, 6 h incubation)","TNF-α and IFN-γ (Th1 cytokines) concentrations in supernatant ([3]; cord blood, 6 h incubation, compared to R848 or medium)","stimulation of cytokines produced by Th2 and Th17 cells ([3]; cord blood, compared to R848 treatment and control cells)","IL-1β (pro-inflammatory cytokine) by ELISA ([3]; cord blood, with respect to R848)","IL-6, IL-21 and IL-10 (Tfh profile cytokines) concentrations ([4]; 6 h incubation)","TNF-α and IFN-γ (Th1 cytokines) concentrations in supernatant ([4]; 6 h incubation, compared to R848 or medium)",stimulation of cytokines produced by Th2 and Th17 cells ([4]; compared to R848 treatment and control cells),IL-9 ([4]; over the other treatments),IL-1β (pro-inflammatory cytokine) by ELISA ([4]; with respect to R848),OVA-specific IgG titers in sera [5],"deaths after challenge ([2]; mouse, in vivo)"
"CCOCc1nc2c(N)nc3ccccc3c2n1CC(C)(C)O [R848, reference compound]",lost weight,,,,,,,,,,,,,,,,
"Nc1ncnc2c1ncn2[C@@H]1O[C@@H]2COP(=O)(O)O[C@H]3[C@@H](O)[C@H](n4cnc5c(N)ncnc54)O[C@@H]3COP(=O)(O)O[C@H]2[C@H]1O [CDA, cyclic bis(3′-5′)diadenylic acid]",,significantly higher,able to promote a protective CTL response,significant,particularly decreased,slightly decreased,higher concentrations,higher concentrations,more modest,slightly decreased,Slightly similar results,differences were not observed,more modest,difference was accentuated,slightly decreased,higher titers,
B1,lost weight,,,,,,,,,,,,,,,,no deaths
